{
  "source": "patent US20120225093A1",
  "about": "“Abrogating HIV-1 Infection via Drug-Induced Reactivation of Apoptosis” (UNIVERSITY OF MEDICINE AND DENTISTRY OF NEW JERSEY, priority 2010, published 2012)",
  "key": {"[1]": {"tested_on": "uninfected H9 cells", "test": "89-kDa PARP fragment by flow cytometry in uninfected H9 cells", "assay_type": "cell-based", "conditions": "30 μM CPX, 24 hr", "procedure": "Intracellular antigens were determined, as geometric means of fluorescence, by flow cytometric analysis using a BD FACSCalibur™ and its BD FACStation System™ (Becton Dickinson; San Jose, Calif.). Intracellular antigens were stained according to the instrument producer's instructions. Anti-HIV-1 Tat antibody was from Abcam Inc. (Cambridge, Mass.); anti-HIV-1 Vpr from Santa Cruz Biotechnology (Santa Cruz, Calif.); anti-HIV-1 Rev from Advanced Biotechnologies Inc. (Columbia, Md.); anti-HIV-1 p24 (KC57) from Beckman Coulter, Miami, Fla.; monoclonal C92-605 anti-human caspase-3 (active form) from Pharmingen (BD Biosciences, San Diego, Calif.); monoclonal F21-852 anti-human poly (ADP-ribose) polymerase (caspase-cleaved 89-kDa fragment); and monoclonal 6C8 anti-human Bcl-2 from Becton Dickinson (BD Biosciences; San Diego, Calif.).\nTo determine whether the differential effects of the drugs extend into late apoptosis, PARP fragmentation in H9 and H9-HIV cells was measured. CPX caused an ˜8-fold increase in H9-HIV cells positive for 89-kDa PARP, compared to a ˜2 fold increase in H9 cells (FIG. 9A). By 24 hr, twice as many cells stained positive for 89-kDa PARP in the infected cultures as in uninfected cultures (27% compared to 14%; FIG. 9B). […]"}, "[2]": {"tested_on": "uninfected PBMCs", "test": "TUNEL apoptosis in uninfected PBMC cultures", "assay_type": "cell-based, human", "conditions": "CPX 30 μM", "procedure": "Uninfected PBMCs were co-incubated with infected PBMC stock in 24-well microplates at 2 ml/well Medium B, at a 10:1 ratio of uninfected-to-infected cells, and a total cell number of 1×10^6. Cultures were maintained and assayed for 6 consecutive days. CPX or Agent P2 was added at the time of inoculation or 12 hr later. Leaving the cell layer undisturbed, half the medium in each well was replenished every day, with concurrent adjustment of compound concentration. On each day during the 6-day experiments, a set of wells was harvested: the cells were processed for determination of viability and apoptosis, and the cell-free supernatants were stored at −80° C. for p24 and viral RNA measurements. […]\nThe potential across the mitochondrial membrane of live cells was determined flow-cytometrically with the lipophilic cationic fluorochrome JC-1 (5,5′,6,6′-tetrachloro-1,1′,3,3′-tetraethylbenzimidazolcarbocyanine iodide) immediately after sample harvest (BD™ Mitoscreen Kit, BD Biosciences; San Diego, Calif.). DNA fragmentation was quantified flow-cytometrically, using a TUNEL (terminal deoxynucleotide transferase dUTP nick end-labeling) assay (APO-BRDU™; Phoenix Flow Systems; San Diego, Calif.) and a dual-color assay for annexin V binding and 7-AAD exclusion (Annexin V-PE 7-AAD Apoptosis Detection Kit I™; BD Biosciences Pharmingen, San Jose, Calif.). […]"}, "[3]": {"tested_on": "HIV-1 LTR", "test": "RNase protection assay of pLTR-FF transcripts (elongation, RNA stability)", "assay_type": "cell-based", "procedure": "RPA was performed with 10 μg of cytoplasmic RNA and 5 μg of nuclear RNA, using the RPAIII kit from Ambion (Austin, Tex.) according to the manufacturer's instructions. Synthesis of radiolabeled RNA and protection assays were performed as described in Young et al. Mol Cell Biol 2003, 23:6373-6384. To generate antisense RNA probe against the HIV-1 major splice site, firefly luciferase and Renilla luciferase pBSII-KS+HIV (+80-341), pSP-luc and pSP-rluc were linearized with HindIII, XbaI and BsaI, respectively. The resulting probes were 309, 390 and 245 nt long, respectively. […]\nResults of the deletion analysis implied that sensitivity to the drugs is conferred by the promoter or another feature in the HIV-1 LTR. […] Nuclear and cytoplasmic RNA was analyzed in RNase protection assays using a probe complementary to the promoter-proximal region of HIV transcripts (FIG. 6A). […]\nTo examine the possibility that the drugs decrease the stability of RNA transcribed from the HIV promoter, cells transfected with pLTR-FF were incubated in the presence or absence of CPX. Actinomycin D was added to some cultures 12 hr later to block further transcription, and FF RNA was monitored by RPA at intervals thereafter (FIG. 6D, top panel). FF RNA levels were quantified and normalized to the levels at 12 hr (FIG. 6D, bottom panel). […]"}},
  "data": [
    {"smiles": "Cc1cc(C2CCCCC2)n(O)c(=O)c1", "note": "[CPX, 6-cyclohexyl-1-hydroxy-4-methylpyridin-2[1H]-one]", "values": [
      {"measurement": "cells positive for 89-kDa PARP", "setting": "[1]", "result": 14, "unit": "%"},
      {"measurement": "increase in cells positive for 89-kDa PARP", "setting": "[1]; relative to untreated", "result": "~2", "unit": "fold"},
      {"measurement": "apoptotic (TUNEL-positive) cells", "setting": "[2]; 144 hr", "result": "24.1% (±3.2%)"},
      {"measurement": "change in proportion of TUNEL-positive PBMCs", "setting": "[2]; uninfected cultures", "result": "roughly doubled"},
      {"measurement": "rate of FF RNA decay", "setting": "[3]; actinomycin D added at 12 hr", "result": "not affected"},
      {"measurement": "FF mRNA level at 12 hr post-transfection, less than control", "setting": "[3]; in the presence of CPX", "result": "~50", "unit": "%"}
    ]}
  ]
}
